In patent US12109214B2, “Formulation and treatment methods” (PRODRUGXTEND PTY LTD, priority 2015, dated 2024):

What was measured:
[1] = system: Winnie mice (spontaneous colitis); test: Spontaneous colitis in Winnie mice, daily gavage up to 14 days; assay type: in vivo
Description: (§1) The vehicle control was water.
Both the colitis and its improvement with treatment [FIGS. 2A and 2(B)] were more marked in the distal colon (DC) of the Winnie mice.

[2] = system: HeLa cells expressing LC3-GFP infected with SL1344; test: Antibacterial autophagy assay; assay type: cell-based; conditions: 6-TG 50 μM
Description: Briefly HeLa cells were plated in 12-well plates containing 18 mm glass coverslips at a density of 1×10^5 cells per well in DMEM 24 hours before infections. Cells were treated with TG or mock treated with DMSO for 16 hours prior to infection. S. enterica serovar Typhimurium SL1344 carrying a DsRed2 expression plasmid was grown overnight in Luria-Bertani broth containing 100 μg/mL carbenicillin at 37° C. with aeration and subcultured at a dilution of 1/33 for a further 3 h in Luria-Bertani carbenicillin broth. This culture was further diluted in DMEM 10% serum without antibiotics to yield a multiplicity of infection (MOI) of 100 and added to HeLa LC3-GFP cells. Infections were allowed to proceed for 20 minutes and the cells were washed once in complete medium containing 100 μg/mL gentamicin sulfate and then incubated in fresh high gentamicin medium for an additional 40 minutes. […] Slides were viewed for counting under wide-field fluorescence illumination with a 60× lens (Olympus). The fraction of LC3-GFP-positive bacteria per cell was assessed in randomly chosen fields with at least 90 cells counted for each condition. Bacteria were scored as within autophagosomes only when a complete and closely conforming LC3-GFP “capsule” was visible.

[3] = system: Winnie mice (spontaneous colitis)
Description: All the animal experiments were approved by the University of Queensland Animal Ethics Committee. C57B1/6 wild-type (WT) mice were purchased from the Animal Resource Authority, Western Australia and the Hprt^−/−, Winnie and RaW were bred in-house in a pathogen free animal facility. […] 6-MP (MW 170, 6-MP monohydrate, ex Sigma-Aldrich) was dissolved in water. The vehicle control was water.
For DSS induced colitis in Hprt^−/− mice the composite disease activity index (DAI) score was used and this comprised diarrhoea, rectal bleeding and body weight percent loss subscores (0<1% loss; 1=1-5% loss; 2=5-15% loss; 3>15% loss).

[4] = system: Salmonella typhimurium (SL1344) in HeLa cells; test: Bacterial replication assay
[5] = system: C57B1/6 WT mice (chronic DSS induced colitis); test: Chronic DSS-induced colitis in C57Bl/6 WT mice; assay type: in vivo
Description: as §1
Dextran sodium sulphate (DSS) (36-50 kDa; MP Biochemicals) was administered in the drinking water chronically [0.5% (w/v) for 4 cycles of 5 days on, followed by either 7 or 9 days off].

[6] = system: Escherichia coli, Enterococcus faecalis and Bacteroides thetaiotamicron; test: Bacterial conversion to thioguanine nucleotides (6-TGN) in vitro; assay type: in vitro ADME; conditions: log phase cultures of all three strains, 1 mM, 120 minutes
Description: Bacterial metabolism of 6-TG was investigated in vitro using the representative gut bacteria Escherichia coli, Enterococcus faecalis and Bacteroides thetaiotamicron. […] In contrast, generation of 6-TGN was minimal over this time period when cultures were incubated with 1 mM 6-MP.

RaW and Winnie mice = test: Colitis in Winnie and RaW (Rag-/- x Winnie) mice; assay type: in vivo
Description: as §1
T and B lymphocytes are not required for the occurrence of spontaneous colitis in Winnie mice. Winnie x Rag^−/− (RaW) mice are Winnie mice that lack T and B lymphocytes. RaW mice spontaneously develop a colitis phenotype with more proximal disease than Winnie [Eri, R D et al; Mucosal. Immunol. 4, 354-364 (2011)].

[7] = system: Hprt−/− mice (DSS induced colitis); test: Chronic DSS induced colitis in Hprt-/- mice
[8] = system: Winnie mice (spontaneous colitis); test: Spontaneous colitis in Winnie mice, low dose gavage 28 days; assay type: in vivo
Description: as §1

[9] = system: primary fibroblasts isolated from WT and Hprt−/− mice; test: Autophagy (LC3-II/β-actin) in primary fibroblasts; assay type: cell-based
Description: HeLa, HCT116, HT29, HepG2 and RAW cells were obtained from ATCC and grown in DMEM supplemented with GlutaMAX (Life Technologies), 10% fetal calf serum and 20 μg/ml penicillin/streptomycin. HeLa cells stably expressing LC3-GFP have been described previously (Kabeya Y et al., The EMBO Journal, 2000, 19 (2), 5720-5728; Birmingham C L et al, J. Biol. Chem., 2006, 281 (16), […]). Primary fibroblasts isolated from WT and Hprt^−/− mice were generated from ear punch samples after dissociation with trypsin and cultured in DMEM supplemented with Glutamax and 20% fetal calf serum with antibiotics and passaged up to four times to ensure that they were axenic.
Following treatment cells were treated with TNN (Tris-HCl, NaCl, NP40) lysis buffer. […] Following transfer to PVDF membranes (Invitrogen), detection was performed using rabbit anti-LC3 primary (Sigma), mouse anti-Actin (Sigma) and appropriate fluorescent secondary antibodies (LI-COR Biosciences) and imaged on a LICOR fluorescent imaging system.

DSS induced colitis = test: 6-MP in DSS induced colitis over one month; assay type: in vivo, mice; conditions: large doses of 6-MP
Description: This discovery was particularly unexpected as these mice lack the ability to form TGNs (the active metabolites) through the conventional metabolic route in the liver and leukocytes. However, formation of the active metabolite was discovered outside the generally understood mechanism. The magnitude of the reduction in disease activity was similar to that found in wild-type mice in which colitis had been induced with DSS. […] Conversion of the related thiopurine, 6-MP, to 6-TGTP was considerably less over the same period consistent with rate-limiting IMPDH in the purine salvage pathway of bacteria.

[10] = WT mice 0.5% DSS, 6-TG 0.5 mg/kg gavage 28 days
[11] = PC and DC of RaW mice and Winnie controls, 6-TG 2.5 mg/kg
[12] = RaW and Winnie mice, 6-TG 2.5 mg/kg up to 14 days

For `Nc1nc2nc[nH]c2c(=S)[nH]1` [Formulation 6-TG, 2-amino-6,7-dihydro-3H-purine-6-thione], the “spontaneous colitis (histological colitis)” value ([1]; 6-TG 1-2.5 mg/kg daily gavage up to 14 days) was “ameliorated the spontaneous colitis in a dose-dependent manner”, the “pharmacodynamic effect (time to improved colonic histology)” value ([1]; oral and intra-rectal TG, 1 or 2.5 mg/kg/day) was “less than two weeks” and the “LC3 co-localization with intracellular bacteria” value [2] was “significantly increased LC3 co-localization”. For the same compound, the “colitis in mid-colon or proximal colon” value ([3]; intra-rectal 1 mg/kg daily 14 days) was “no improvement”, the “blinded histological scoring of the distal colon” value ([3]; intra-rectal 1 mg/kg daily 14 days, P<0.01) was “striking improvement” and the combined diarrhea score ([3]; intra-rectal 1 mg/kg daily, from day 11, vs 6-MP and vehicle) was “statistically significant improvement”. The “intracellular replication of the bacteria (luminescence)” value ([4]; HeLa cells, 50 or 100 μM 6-TG, 12 h post infection) was “significantly decreased intracellular replication”, the “bacterial growth (OD 600 absorbance)” value ([4]; over the 12 h period) was “did not alter bacterial growth” and the “DSS colitis, total colitis scores, immune and epithelial damage subscores” value [5, 10] was “improved with 6-TG”. For the same compound, the colon weight [5, 10] was “significantly improved”, the combined diarrhoea score [5, 10] was “significantly improved” and the “peripheral white blood cells” value ([5]; WT mice DSS-treated and untreated, 6-TG 0.5 mg/kg gavage 28 days) was “decreased peripheral white blood cells”. The body weight gain ([5]; juvenile C57B1/6 WT mice, irrespective of DSS, 6-TG 0.5 mg/kg) was “reduction of expected body weight gain”, the “6-TGN (6-TGMP, 6-TGDP and 6-TGTP) generation in bacterial pellets” value [6] was “found in the bacterial pellets” and the Muc2 expression (RaW and Winnie mice; [11]) was “increased Muc2 expression”. The “inflammation (Ifn-γ, Il-1b)” value (RaW and Winnie mice; [11]) was “decreased inflammation”, the “blinded histological PC and DC colitis scores” value (RaW and Winnie mice; [12]) was “improved blinded histological PC and DC colitis scores” and the goblet cell morphology (RaW and Winnie mice; [12]) was “restored goblet cell morphology”. The disease activity ([7]; Hprt−/− mice, 0.5% DSS, 6-TG 0.5 mg/kg oral gavage day 28 to 52) was “rapid and appreciable reduction in disease activity”, the immunosuppression ([7]; Hprt−/− mice, 6-TG 0.5 mg/kg oral gavage) was “not associated with immunosuppression” and the MLN cell counts ([7]; Hprt−/− mice, DSS, 6-TG 0.5 mg/kg) was “not depressed by 6-TG”. For the same compound, the “CD3e+CD4+, CD11b+ and CD11c+MHCII+ subset numbers in the MLN” value ([7]; untreated or DSS exposed Hprt−/− mice, 6-TG 0.5 mg/kg) was “not decreased”, the “blinded histological colitis scores PC and DC” value ([8]; 6-TG 0.5 mg/kg/d) was “improved blinded histological colitis scores in both PC and DC” and the “combined diarrhoea (diarrhoea and rectal bleeding) score” value ([8]; 6-TG 0.5 mg/kg/d or 6-MP 2.5 mg/kg/d) was “improved with 6-TG”. For the same compound, the peripheral blood leukocytes ([8]; 6-TG 0.5 mg/kg/d or 6-MP 2.5 mg/kg/d, P=0.09) was “tended to reduce peripheral blood leukocytes”.

With `CCC(=O)N1CCN(c2ccc(-n3c(=O)ccc4cnc5ccc(-c6cnc7ccccc7c6)cc5c43)cc2C(F)(F)F)CC1` [Torin1] the autophagy induction [9] was “autophagy could be induced”.

With `Sc1ncnc2nc[nH]c12` [Formulation 6-MP, 3,7-dihydropurine-6-thione] the colitis (DSS induced colitis) was “no reduction in colitis” and the “6-TGN (6-TGMP, 6-TGDP and 6-TGTP) generation in bacterial pellets” value [6] was “minimal”.
